Residues, ends and D or L forms follow the SMILES beside them.
Legend:
[1] = target: T1, ATP-dependent translocase ABCB1 (Homo sapiens, UniProt P08183); test: Inhibition of P-gp in HEK293/ABCB1 cells assessed as potentiation of doxorubicin-induced cytotoxicity by measuring doxorubicin IC50 at 1 uM incubated for 48 hrs by MTT assay (Rvb = 8.08 uM)
[2] = Inhibition of P-gp in HEK293/ABCB1 cells assessed as potentiation of cisplatin-induced cytotoxicity by measuring cisplatin IC50 at 2 uM incubated for 48 hrs by MTT assay (Rvb = 8.08 uM)
[3] = target: T1, ATP-dependent translocase ABCB1; test: Inhibition of P-gp in human NCI-H460/R cells assessed as potentiation of doxorubicin-induced cytotoxicity by measuring reduction in doxorubicin IC50 at 0.1 to 2.5 uM incubated for 72 hrs by MTT assay
[4] = target: T1, ATP-dependent translocase ABCB1; test: Inhibition of P-gp in human Caco2 cells assessed as potentiation of doxorubicin-induced cytotoxicity by measuring reduction in doxorubicin IC50 at 2.2 uM incubated for 24 hrs by MTT assay

T1 sequence (P08183 whole entry): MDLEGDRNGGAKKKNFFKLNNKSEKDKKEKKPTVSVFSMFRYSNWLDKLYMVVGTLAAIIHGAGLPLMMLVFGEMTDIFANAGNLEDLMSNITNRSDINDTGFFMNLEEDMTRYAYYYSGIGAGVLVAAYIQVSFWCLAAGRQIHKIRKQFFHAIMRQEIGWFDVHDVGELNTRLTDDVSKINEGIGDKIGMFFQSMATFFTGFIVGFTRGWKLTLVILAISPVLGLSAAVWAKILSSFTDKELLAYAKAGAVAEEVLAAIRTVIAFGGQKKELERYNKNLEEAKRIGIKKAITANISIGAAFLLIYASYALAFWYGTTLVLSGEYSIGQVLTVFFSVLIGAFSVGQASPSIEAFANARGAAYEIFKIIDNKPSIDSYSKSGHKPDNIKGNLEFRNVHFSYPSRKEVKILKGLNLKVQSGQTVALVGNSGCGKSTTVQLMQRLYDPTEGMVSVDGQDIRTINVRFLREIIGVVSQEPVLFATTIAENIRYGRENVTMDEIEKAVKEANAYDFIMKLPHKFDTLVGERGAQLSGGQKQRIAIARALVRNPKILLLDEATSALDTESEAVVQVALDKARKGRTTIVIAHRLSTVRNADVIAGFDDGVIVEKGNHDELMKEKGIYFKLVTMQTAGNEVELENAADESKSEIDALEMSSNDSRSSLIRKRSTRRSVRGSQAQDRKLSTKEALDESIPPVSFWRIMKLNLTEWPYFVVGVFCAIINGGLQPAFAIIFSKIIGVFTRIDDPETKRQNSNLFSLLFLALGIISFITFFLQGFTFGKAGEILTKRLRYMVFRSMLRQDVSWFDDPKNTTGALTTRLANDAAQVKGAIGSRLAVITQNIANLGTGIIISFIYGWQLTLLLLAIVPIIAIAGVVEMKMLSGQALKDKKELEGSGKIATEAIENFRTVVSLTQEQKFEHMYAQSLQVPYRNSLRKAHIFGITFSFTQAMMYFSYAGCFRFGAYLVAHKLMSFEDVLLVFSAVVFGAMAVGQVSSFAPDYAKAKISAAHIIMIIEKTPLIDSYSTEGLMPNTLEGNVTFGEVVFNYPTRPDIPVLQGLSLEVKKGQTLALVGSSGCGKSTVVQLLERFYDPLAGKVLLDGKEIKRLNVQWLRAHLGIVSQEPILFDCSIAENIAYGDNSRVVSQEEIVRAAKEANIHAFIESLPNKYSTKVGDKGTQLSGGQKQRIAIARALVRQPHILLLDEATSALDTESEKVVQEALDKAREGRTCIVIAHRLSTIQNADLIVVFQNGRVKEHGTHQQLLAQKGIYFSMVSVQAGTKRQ

CCOc1cc(O)cc2c1C[C@@H](OC(=O)c1cc(OCC)c(OCC)c(OCC)c1)[C@@H](c1cc(O)c(OCC)c(OCC)c1)O2
IC50 [1]: 620 nM | IC50 [2]: 920 nM

CC(C)[C@H](NC(=O)[C@H](CO)NC(=O)[C@@H](N)Cc1ccc(O)cc1)C(=O)O (H-Tyr-Ser-Val-OH)
IC50 [3]: 700 nM

CC1(C)O[C@H]2CC(=O)OC[C@]23[C@H]2CC[C@@]4(C)[C@H](c5ccoc5)OC(=O)[C@H]5O[C@]54[C@]2(C)C(=O)C[C@@H]13 [Limonin]
IC50 [4]: 19100 nM

Reference: BindingDB's records for doi:10.1016/j.ejmech.2019.05.027 (Central University of Punjab, 2019)
